In patent US20080039434A1, “Treatment of Interstitial Cystitis with Vitamin D Compounds” (BioXell S. p.A., priority 2004, published 2008):

Columns and labels:
[1] = test system: rats with CYP-induced cystitis; experiment: Cystometry in rats with CYP induced chronic IC, Compound B; assay type: in vivo, rat; settings: for # of NVBC / FP / MP / TP / amplitude of NVBC / Bl. Cap.: group value; for Bl. Cap.: unit from FIG. 5 legend
Text: Wistar rats ([…] weighing 125-175 g, age 8 weeks) were used. Under general inhalation anesthesia with 2% isoflurane, polyethylene tubing (PE-50, Clay Adams, Parsippany, N.J.) with the end flared by heat was inserted into the dome of the bladder and secured in place with a 6-0 nylon purse string suture. The distal end of the tubing was sealed, tunneled subcutaneously and externalized through a small incision at the back of the neck. The tubing was then coiled and buried subcutaneously. Following recovery (5 days) subject animals underwent three intraperitoneal injections of CYP (Sigma Chemical, St. Louis, Mo.; 75 mg/kg each, intraperitoneal) over the period of nine days. […] Two weeks following the initiation of the treatment animals underwent a conscious cystometrogram to assess the function of the urinary bladder. […] An ethanol stock solution of Compound B (1 mg/ml) was dissolved in Miglyol vehicle at the appropriate concentration. Control animals received the vehicle containing the same amount of ethanol. Drug (or vehicle) treatment was carried out by daily gavage after weighing the animal. Drug solution was prepared calculating a final volume of 100 ul/10 grams body weight. Following two weeks of treatment, animals were placed unrestrained in a cage and the distal end of the catheter was extracted from the subcutaneous pouch and connected via T-tube to a pressure transducer (Grass® Model PT300, West Warwick, R.I.) and microinjection pump (Harvard Apparatus 22, South Natick, Mass.). Saline solution (0.9%, room temperature) was infused into the bladder at a rate of 10 ml/h. Intravesical pressure was recorded continuously using a Neurodata Acquisition System (Grass®, Astro-Med, West Warwick, R.I.). At a minimum, three reproducible micturition cycles were recorded. […] The post-void residual (PVR) was measured by aspirating the residual urine remaining in the bladder after the last micturition or draining the bladder by gravity. Bladder capacity (BC) was calculated as the sum of voided volume and PVR. The bladder was harvested and its weight was recorded following euthanasia.

total IgE = experiment: Serum total IgE ELISA, allergic IC in mice; assay type: in vivo, mouse; settings: 75 ug/kg oral vs vehicle; ovalbumin-sensitized BALB/c mice
Experimental: (§1) Mice (BALB/c, females 8 weeks old, weight 18-20 g, Charles River, Calco ITA) were sensitized by injecting 10 ug/mouse of chicken ovalbumin from Sigma (OVA, grade V) in the presence of 4 mg of alum (SERVA, Germany) by intraperitoneal injection, once a week for 4 weeks. This induces a sustained level of IgE detectable in serum.
One or two weeks after the last immunization boost, sensitized mice were anesthetized (1.5% Isoflurane) and then trans-urethrally catheterized (24 gauge, ¾ in.; Angiocath, Becton-Dickson). Slight digital pressure was applied the lower abdomen to drain the urine.
The urinary bladders were instilled with either 150 ul of either saline or OVA alone, (1 mg/150 ul) infused at a slow rate to avoid trauma and vesico-ureteral reflux and repeated twice within a 30-min interval with the syringe kept in place on the catheter for at least 30 min. Intravesical challenge was repeated 7-10 days after the first one with the same procedure. […]
Serum total IgE levels were measured by using a commercially available kit (BD Opteia, Mouse IgE ELISA Set Cat. No. 555248) and following manufacturer's instructions. […] After reaction stopping (H2SO4 1M, 50 ul/well) absorbance at 450 nm was recorded within 30 minutes.

MCPT2 = experiment: Taq-Man analysis of bladder mRNA, allergic IC in mice: MCPT2; assay type: in vivo, mouse; settings: ovalbumin challenged; 30 and 75 ug/kg oral, dose dependent; pooled samples
Experimental: as §1
One or two weeks after the last immunization boost, sensitized mice were anesthetized (1.5% Isoflurane) and then trans-urethrally catheterized (24 gauge, ¾ in.; Angiocath, Becton-Dickson). Slight digital pressure was applied the lower abdomen to drain the urine. […]
Total RNA was extracted from one half of bladder by using RNeasy Mini kit (Qiagen), treated with DNase 1 (Qiagen) and reverse transcription performed with Reverse Transcription Reagent (Applied Biosystems) with Random Hexamers (according to the manufacturer's instructions). cDNA was synthesized from 1 ug of RNA. […] Reaction was run on an SDS 7000 (Applied Biosystems) instruments, with the following amplification program: 2′ at 50° C.; 10′ at 95° C.; 15″ at 95° C. and 1′ at 60° C. for 40 cycles; Cycle threshold (Ct) values were exported into Excel Worksheets for analysis and relative quantitations were performed using the ΔCt method. […]

[2] = 30 ug/kg oral daily for 14 days
[3] = 75 ug/kg oral daily for 14 days
[4] = vs vehicle, not statistically significant

Structure (SMILES): C=C1/C(=C\C=C2/CCC[C@]3(C)C([C@@H](C)C/C=C/C(O)(CC)CC)=CC[C@@H]23)C[C@@H](O)C[C@@H]1F [Compound B, 1-alpha-fluoro-25-hydroxy-16,23E-diene-26,27-bishomo-20-epi-cholecalciferol]
- # of NVBC [1, 2]: 11.7
- FP [1, 2]: 23.3 cm H2O
- MP [1, 2]: 79.3 cm H2O
- TP [1, 2]: 29.3 cm H2O
- amplitude of NVBC [1, 2]: 16.6
- Bl. Cap. [1, 2]: 2.0 mL
- # of NVBC [1, 3]: 8.3
- FP [1, 3]: 26.1 cm H2O
- MP [1, 3]: 90.5 cm H2O
- TP [1, 3]: 36.3 cm H2O
- amplitude of NVBC [1, 3]: 13.6
- Bl. Cap. [1, 3]: 2.1 mL
- frequency of non-voiding bladder contractions ([1]; both dosage levels (30 ug/kg, p<0.01; 75 ug/kg, p<0.005) vs vehicle): significantly reduced
- bladder capacity ([1]; both dosage levels (30 ug/kg, p<0.01; 75 ug/kg, p<0.01) vs vehicle): increased
- amplitude of non-voiding bladder contractions ([1]; higher dose level (75 ug/kg), not statistically significant): reduced
- filling pressure [1, 4]: Marginal increase
- threshold pressure [1, 4]: Marginal increase
- total amount of IgE in serum (total IgE): no significant changes
- expression of inflammatory marker MCPT2 (MCPT2): significantly reduces
